How the values were obtained:
[1] = test system: collagen (Coll) induced platelet aggregation; assay: in vitro inhibition of collagen (Coll) induced platelet aggregation, aggregometer method of Born, rat platelet rich plasma; type: cell-based; settings: rat citrated platelet rich plasma, 50% inhibition
Experimental: (§1) The aggregometer method of Born [G. V. Born, Nature, 194, 927 (1962)] was used to assess the in vitro activity of the various compounds as to inhibition of adenosine diphosphate (ADP) and collagen (Coll) induced platelet aggregation. Platelet rich plasma (PRP) was separated by centrifugation from citrated (0.313%) rat blood.
(§2) A methanolic solution of the test compound was added to the PRP, then aggregation was induced by adding to the mixture of ADP solution containing CaCl2 or a collagen suspension prepared according to the method described by Ashida et al [S. Ashida and Y. Abiko, Thromb. Diath. Haemorrh., 30, 528 (1975)], and the optical density of the resulting mixture was determined. […] A dose response curve was drawn from the results obtained above and the effective concentration giving a 50% inhibition (EC50) was calculated.

[2] = test system: adenosine diphosphate (ADP) induced platelet aggregation; assay: in vitro inhibition of adenosine diphosphate (ADP) induced platelet aggregation, aggregometer method of Born, rat platelet rich plasma; type: cell-based; settings: rat citrated platelet rich plasma, 50% inhibition
Experimental: as §1, §2

[3] = blood pressure of normal rat after oral administration; type: in vivo; settings: 50 mg/kg (p.o) in rat; 5-6 hours after oral administration
Experimental: The blood pressure of normal rat was measured at 5-6 hours after the oral administration at a dose of 50 mg/kg.

[4] = test system: Platelet aggregation induced by collagen suspension; assay: ex vivo inhibition of collagen-induced platelet aggregation after oral administration in rat; settings: 50 mg/kg (p.o) in rat, blood collected 2 hours after oral administration, vs vehicle control rats
Experimental: Blood samples were collected 2 hours after oral administration of the
compound to be tested or vehicle alone. Platelet rich plasmas were
obtained by centrifugation of the blood. Platelet aggregation was induced
by adding collagen suspension to the platelet rich plasma and was compare
with that observed with the platelet rich plasma from the control rats

Row | Compound | EC50 [1] [µM] | EC50 [2] [µM] | Blood Pressure % Reduction [3] | Inhibition of Platelet Aggregation ex vivo % Inhibition [4] [%]
1 | Cc1sc2c(c1C)CN1CC(=O)NC1=N2 [Compound 1, 6,7-dimethyl-1,2,3,5-tetrahydroimidazo[1,2-a]thieno[2,3-d]pyrimidin-2-one] | 1 | 5 | 5 ± 3% | 84
2 | CC1C(=O)NC2=Nc3sc4c(c3CN21)CCCC4 (stereo not shown) [Compound 18] | 0.6 | 48 | – | –
3 | CCCCCc1sc2c(c1C)CN1CC(=O)NC1=N2 [Compound 17] | 0.19 | 2 | – | –
4 | CCCc1sc2c(c1C)CN1CC(=O)NC1=N2 [Compound 16] | 0.08 | 0.58 | – | 60
5 | Cc1c(Cl)sc2c1CN1CC(=O)NC1=N2 [Compound 6] | 1.9 | 4.2 | – | 24
6 | Cc1cccc2c1CN1CC(=O)NC1=N2 [BL-3459, 6-methyl-1,2,3,5-tetrahydroimidazo[2,1-b]quinazolin-2-one, reference compound] | 0.8 | 5 | 35 + 3% | 57
7 | Cc1scc2c1CN1CC(=O)NC1=N2 [Compound 14] | 3.5 | 17 | – | 32
8 | O=C1CN2Cc3c(sc4c3CCCC4)N=C2N1 [Compound 8, 1,2,3,5,6,7,8,9-octahydroimidazo[1,2-a][1]benzothieno[2,3-d]pyrimidin-2-one] | 0.1 | 5 | 8 ± 2% | 57
9 | O=C1CN2Cc3sccc3N=C2N1 [Compound 11] | 10 | 85 | – | –
10 | O=C1CN2Cc3c(sc4c3CCCCC4)N=C2N1 [Compound 9] | 15 | 20 | – | –
11 | CCCc1c(CC)sc2c1CN1CC(=O)NC1=N2 [Compound 15] | 2.2 | 3 | – | 90
12 | Cc1csc2c1CN1CC(=O)NC1=N2 [Compound 4] | 15 | 19 | – | –
